PubChem BioAssay AID2060510 (Molecular Pharmacology Branch, DTP, NCI, 2025)

Test system: 439559-082-T-J2-PDC spheroids viability
Experiment: Anticancer human tumor 439559-082-T-J2-PDC patient-derived colon adenocarcinoma cell line growth inhibition [GQUAD]
Details: for IC50: curve of first compound; for viability, T/C: stronger effect = lower value; active = viability on the fitted dose curve at most 10% of control; inactive = the rest
How it was run: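 Viability of tumor cells grown as complex spheroids with endothelial and stromal cells, exposed to drug combinations. Top concentration at or near clinical Cmax (else 10 microM), diluted in half-log increments.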

[1] = second compound 0.0316 µM, first compound 0.0316 µM
[2] = second compound 0.0316 µM, first compound 0.1 µM
[3] = second compound 0.0316 µM, first compound 0.316 µM
[4] = second compound 0.0316 µM, first compound 1 µM
[5] = second compound 0.0316 µM, first compound 3.16 µM
[6] = second compound 0.0316 µM, first compound 10 µM
[7] = second compound 0.1 µM, first compound 0.0316 µM
[8] = second compound 0.1 µM, first compound 0.1 µM
[9] = second compound 0.1 µM, first compound 0.316 µM
[10] = second compound 0.1 µM, first compound 1 µM
[11] = second compound 0.1 µM, first compound 3.16 µM
[12] = second compound 0.1 µM, first compound 10 µM
[13] = second compound 0.316 µM, first compound 0.0316 µM
[14] = second compound 0.316 µM, first compound 0.1 µM
[15] = second compound 0.316 µM, first compound 0.316 µM
[16] = second compound 0.316 µM, first compound 1 µM
[17] = second compound 0.316 µM, first compound 3.16 µM
[18] = second compound 0.316 µM, first compound 10 µM
[19] = second compound 1 µM, first compound 0.0316 µM
[20] = second compound 1 µM, first compound 0.1 µM
[21] = second compound 1 µM, first compound 0.316 µM
[22] = second compound 1 µM, first compound 1 µM
[23] = second compound 1 µM, first compound 3.16 µM
[24] = second compound 1 µM, first compound 10 µM
[25] = second compound 3.16 µM, first compound 0.0316 µM
[26] = second compound 3.16 µM, first compound 0.1 µM
[27] = second compound 3.16 µM, first compound 0.316 µM
[28] = second compound 3.16 µM, first compound 1 µM
[29] = second compound 3.16 µM, first compound 3.16 µM
[30] = second compound 3.16 µM, first compound 10 µM
[31] = second compound 10 µM, first compound 0.0316 µM
[32] = second compound 10 µM, first compound 0.1 µM
[33] = second compound 10 µM, first compound 0.316 µM
[34] = second compound 10 µM, first compound 1 µM
[35] = second compound 10 µM, first compound 3.16 µM
[36] = second compound 10 µM, first compound 10 µM
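Also: spheroids exposed to the agents for 7 days before readout.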
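For viability, T/C in this document: percent of luminescence signal in DMSO vehicle wells taken as 100% viability.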

COc1cc(C2c3cc4c(cc3C(OC3OC5COC(C)OC5C(O)C3O)C3COC(=O)C23)OCO4)cc(OC)c1O (centres undefined) + Cc1cnc(CNC(=O)c2c(=O)c3ccc(N4CCCN(C)CC4)nc3n3c2sc2ccccc23)cn1
> 10 µM: IC50 (second compound 0.0316 µM) | IC50 (second compound 0.1 µM) | IC50 (second compound 0.316 µM) | IC50 (second compound 1 µM) | IC50 (second compound 3.16 µM) | IC50 (second compound 10 µM)
inactive: viability, T/C [1] 92.8% | viability, T/C [2] 99.9% | viability, T/C [3] 93.4% | viability, T/C [4] 85.5% | viability, T/C [5] 84.1% | viability, T/C [6] 60.3% | viability, T/C [7] 86.2% | viability, T/C [8] 83.7% | viability, T/C [9] 85.1% | viability, T/C [10] 76.5% | viability, T/C [11] 80.5% | viability, T/C [12] 59.9% | viability, T/C [13] 94.4% | viability, T/C [14] 86.5% | viability, T/C [15] 81.4% | viability, T/C [16] 75.2% | viability, T/C [17] 70.2% | viability, T/C [18] 56.3% | viability, T/C [19] 74.8% | viability, T/C [20] 78.9% | viability, T/C [21] 70.6% | viability, T/C [22] 70% | viability, T/C [23] 64.8% | viability, T/C [24] 55.1% | viability, T/C [25] 63.6% | viability, T/C [26] 73.3% | viability, T/C [27] 66% | viability, T/C [28] 66.5% | viability, T/C [29] 66.2% | viability, T/C [30] 56.3% | viability, T/C [31] 72.3% | viability, T/C [32] 63.6% | viability, T/C [33] 62.5% | viability, T/C [34] 60.8% | viability, T/C [35] 59.8% | viability, T/C [36] 49.8%

COc1cccc2c1C(=O)c1c(O)c3c(c(O)c1C2=O)CC(O)(C(=O)CO)CC3OC1CC(N)C(O)C(C)O1 (centres undefined) + Cc1cnc(CNC(=O)c2c(=O)c3ccc(N4CCCN(C)CC4)nc3n3c2sc2ccccc23)cn1
4.05 µM: IC50 (second compound 0.0316 µM)
3.83 µM: IC50 (second compound 10 µM)
7.15 µM: IC50 (second compound 0.316 µM)
inactive: viability, T/C [1] 99% | viability, T/C [2] 95.1% | viability, T/C [3] 87.3% | viability, T/C [4] 77.6% | viability, T/C [5] 48.9% | viability, T/C [6] 45.3% | viability, T/C [7] 101% | viability, T/C [8] 96.7% | viability, T/C [9] 89.6% | viability, T/C [10] 70.3% | viability, T/C [11] 54.3% | viability, T/C [12] 45.3% | viability, T/C [13] 79.9% | viability, T/C [14] 73% | viability, T/C [15] 69.6% | viability, T/C [16] 79.3% | viability, T/C [17] 57.2% | viability, T/C [18] 45.9% | viability, T/C [19] 70% | viability, T/C [20] 73.3% | viability, T/C [21] 69.7% | viability, T/C [22] 63.6% | viability, T/C [23] 61.6% | viability, T/C [24] 44.7% | viability, T/C [25] 71% | viability, T/C [26] 67.2% | viability, T/C [27] 65% | viability, T/C [28] 60.3% | viability, T/C [29] 55.3% | viability, T/C [30] 41.1% | viability, T/C [31] 63.3% | viability, T/C [32] 67.7% | viability, T/C [33] 63.1% | viability, T/C [34] 54.2% | viability, T/C [35] 51% | viability, T/C [36] 44.2%
4.51 µM: IC50 (second compound 3.16 µM)
5.35 µM: IC50 (second compound 0.1 µM)
6.8 µM: IC50 (second compound 1 µM)
